# Results from a melting point compilation (Tetko et al.; mined from patent text by program, amines drawn as free bases though some values may be those of a salt).
row,SMILES,melting point [°C]
1,c1cncc(NC2CCNCC2)c1,127 to 129
2,Cn1nc2c(oc3cc(Cl)ccc32)c1N,210 to 211
3,CCOC(=O)C(=O)Nc1ccc2[nH]c(=O)oc2c1,180 to 186
4,CN(c1cccc2cc(-c3nccs3)[nH]c12)S(=O)(=O)c1ccsc1C(C)(C)O,153
5,CCc1ccccc1-c1nc(-c2cccc(OC)c2)nn1C(=O)Nc1ccc(C)cc1,141 to 142
6,CC(C)[C@@H](NC(=O)OC(C)(C)C)[C@H]1CCn2c(cc3ccccc32)C1,122 to 124
7,O=S(=O)(O)c1cc(O)ccc1O,164 to 167
8,OCC(O)Cc1nccn1CCCCc1ccc(OCc2coc(/C=C/c3c(F)cccc3F)n2)cc1 (stereo not given),123 to 125
9,CCCCCCCCOC(=O)n1c(-c2cscn2)nc2ccccc21,66 to 67.5
10,CC(=O)OC1CCC2(C)C(CCC3C2CCC2(C)C(C(=O)C=[N+]=[N-])CCC32)C1 (stereo not given),135 to 136
11,O=CC1CC1Nc1nccc(-n2nnc3ccccc32)n1 (stereo not given),99 to 100
12,CCCNC(=O)C(C#N)(CC)c1ccccc1 (stereo not given),55 to 56
13,CCc1ccc(-c2ccc(-c3ccc(CC)s3)c(F)c2)cc1,67
14,CCNC(=O)n1ccc(O)cc1=O,272
15,O=C(O)c1cc(OCc2ccsc2)c(-c2ccccc2)c([N+](=O)[O-])c1,184 to 186
16,CCC(O)c1ccc(-c2ccc(Cl)cc2)o1 (stereo not given),74 to 75
17,O=[N+]([O-])c1cc(-c2nc3ccccc3s2)ccc1O,214 to 215
18,CSc1cc(C(=O)c2cnoc2C2CC2)ccc1C,85.5 to 86.1
19,CCC(=O)N1Cc2cc(OC)ccc2C(Cc2c(Cl)cncc2Cl)=N1,195 to 197
20,Cc1oc(-c2ccccc2)nc1C(O)c1cc2cc(Br)ccc2o1 (stereo not given),152 to 154

row,SMILES,melting point [°C]
1,CCCCCC(=O)OC(C)OC1=C(C(=O)Nc2ccccn2)N(C)S(=O)(=O)c2ccccc21 (stereo not given),62 to 65
2,Cc1c(F)cccc1Cc1c(-c2ccccc2)c2cc(O)cnn2c1C(=O)N1CCNCC1,206 to 208
3,CNC(=O)C(Cc1ccccc1)NC(=O)C(CC(C)C)C(S)CC(=O)OC (stereo not given),169 to 171
4,CC(=O)OC1(N=NC2(OC(C)=O)CCCCC2)CCCCC1,91 to 94
5,Cc1ccc(S(=O)(=O)Cl)c(C)c1NC(=O)CCl,148 to 149
6,CN1C(=O)[C@@H](CN2CCCCC2)C[C@H]1c1ccc(Br)cc1,55 to 58
7,Cc1c(-c2ccc(Cl)cc2)ccc2nc(C(=O)NC(Cc3ccc(OCc4ccccc4)cc3)C(=O)O)cn12 (stereo not given),263 to 264
8,Cn1cc(C(=O)c2ccc(Cl)cc2)cc1C(=O)c1ccc(Cl)nc1,150 to 152
9,Cc1cccc(C)c1Nc1nc(-c2nc3ccc(C(F)(F)F)cc3[nH]2)cs1,250 to 251
10,O=c1c(=NO)c2ccccc2oc2cc(F)ccc12,196 to 198
11,Cc1cccc(COc2cccc(OCc3cnc4ccccc4n3)c2)c1C(=O)O,57 to 60
12,COc1cccc(Cl)c1C1SC(=O)NC1=O (stereo not given),195 to 197
13,CC(=O)OC[C@@H](C)[C@H]1CC[C@H]2[C@@H]3C=CC4=CC(=O)C=C[C@]4(C)[C@H]3CC[C@]12C,90 to 93
14,NS(=O)(=O)c1cc(C(=O)O)cc([N+](=O)[O-])c1Oc1ccccc1,255 to 256
15,COc1c(N2CC(C)(N)C3(CC3)C2)c(F)cc2c(=O)c(C(=O)O)cn([C@@H]3C[C@@H]3F)c12 (stereo not given in full),195 to 200
16,C[C@@H](N)CN(c1ccccn1)S(=O)(=O)O,176 to 179
17,CCCCCC1CCc2cc(C(N)=O)ccc2C1 (stereo not given),166 to 168
18,OC1CSC(Sc2ccc(C(F)(F)F)cc2)C(O)C1O (stereo not given),128 to 130
19,Cc1cccc(C(=O)NCN2CCN(c3cccc(C#N)c3)CC2)c1,59 to 61
20,CC1(C)Oc2ccc(S(=O)(=O)C(F)(F)C(F)(F)C(F)(F)F)cc2[C@@H](N2Cc3ccccc3C2=O)[C@@H]1O (relative stereo),241 to 249

row,SMILES,melting point [°C]
1,Cc1cccc(C)c1NC(=O)c1ccc(C#N)cc1,185 to 187
2,CNC(=O)Nc1nc2c(s1)C(C)(C)CC(C)(C)C2,> 250
3,COc1cc2c(cc1OC)C(CNC=O)c1ccccc1CC2 (stereo not given),118 to 119
4,CC(=O)N(C)C(c1ccc(F)cc1)c1ccc(F)cc1,99 to 100
5,COC(=O)c1nccnc1Nc1ccccc1,72 to 75
6,O=c1ccc(S(=O)(=O)n2ccc3ccccc32)n[nH]1,169 to 170
7,COC(=O)c1cc(CS(=O)(=O)c2ccccc2)cnc1C1=NC(C)(C(C)C)C(=O)N1C(=O)c1ccccc1 (stereo not given),162 to 166
8,Fc1cc(N2CCNCC2)c2ncccc2c1,103
9,NC(=O)C(CCCC(NC(=O)OCc1ccccc1)C(=O)O)NC(=O)OCc1ccccc1 (stereo not given),145 to 150
10,COc1ccc(CCNc2nccc(-c3cccc(NC(=O)CCN(C)C)c3)n2)cc1OC,107 to 108
11,Cn1cc2c(=O)[nH]c(=O)[nH]c2n1,200
12,COc1ccc(C(=O)Nc2ccc(F)c(F)c2)cc1NS(=O)(=O)c1ccc([N+](=O)[O-])cc1,234 to 236
13,CCCCCCCCCCCCS(=O)(=O)c1cc2c(cc1S(=O)(=O)CCCCCCCCCCCC)C(=O)c1c(c(O)c3ccccc3c1O)C2=O,173 to 175
14,CCCCCCN(Cc1ccccc1)c1c(N[C@@H](Cc2ccccc2)C(=O)O)c(=O)c1=O,61 to 65
15,CC(O)C(C)(C)NC(=S)NC(=O)c1ccccc1 (stereo not given),136 to 138
16,Cc1cccc2c(/C=C/C(=O)O)cc(C(C)C)c(O)c12,122 to 123
17,CCCCCCCCCCCCC/C=C(/C(=O)Nc1ccc(C(=O)O)cc1)c1ccc2c(c1)C(C)(C)CCC2(C)C,59 to 60
18,COC(=O)CS(=O)(=O)Cc1cnc(OC)c([N+](=O)[O-])c1,137 to 140

# Other lines, results leading:
row,melting point [°C],SMILES
1,50 to 51,CCOC(=O)c1ccc(OCCSc2ccccc2)cc1
2,175 to 178,O=C(CC(=O)C(F)(F)F)c1nc2ccc(F)cc2s1
3,118 to 120,Fc1ccc2c(N3CCN(CCCCn4cc5ccccc5c4)CC3)csc2c1
4,81 to 82,CC(C)(C#N)c1cc(Cn2cncn2)cc(C(C)(C)C#N)c1
5,142 to 144,Cc1ccc(C=CC(=O)N(C)O)cc1
6,236,O=C(N[C@H]1CC[C@H](CCN2CCN(c3nccc4c3OCC4)CC2)CC1)c1ccc(F)cc1
7,101 to 102,C#CCOc1cc(C2(C(F)(F)F)CC(=O)NC(OCC)=N2)c(F)cc1Br (stereo not given)
8,162,COc1ccc(C(CSc2ccccc2N)C(=O)O)cc1OC (stereo not given)
9,68 to 75,CCn1c(=O)n(Cc2ccccc2)c(=O)c2c(N3CCN(C)CC3)cc(Cl)cc21
10,135 to 136,CC(C(N)=O)c1ccc2c(c1)CCc1ccccc1S2 (stereo not given)
11,219 to 222,O=CCCC[C@@H](C(=O)O)N1C(=O)c2ccccc2C1=O
12,99 to 103,CN(C)CCNc1cc(Sc2ccc(Cl)cc2)nc(-c2ccc(Cl)c(Cl)c2)n1
13,239 to 240,CN1CCN(c2ccc(N/C=C3\C(=O)NC(=O)c4ccc(-n5cccc5)cc43)cc2)CC1
14,274 to 275,Cc1cc(C)nc(-n2cnc(S(=O)(=O)Nc3c(Cl)cccc3Cl)n2)n1
15,177 to 178,Cc1oc(-c2ccccc2)nc1COc1ccc(COc2ccc(CCC(=O)O)cc2)cc1
16,226 to 230,CNCC1CCN(c2c(F)cc3c(=O)c(C(=O)O)cn(C4CC4)c3c2OC)C1 (stereo not given)
17,120 to 122,CCOC(=O)c1cc(NS(=O)(=O)c2cccnc2)ccc1Oc1cncc(Cl)c1
18,133 to 136,CCNc1c(C(=O)OCC)c(=O)n(CC)c2nc(C)ccc12
19,88 to 91,O=C1CC(C(F)(F)F)CC(=O)O1
20,146 to 147,FC(F)(F)Oc1ccc(Cn2cnc3c(-c4ccco4)ncnc32)cc1
21,123 to 124,CS(=O)(=O)Nc1cc(F)c(Cl)cc1I

row,melting point [°C],SMILES
1,182 to 184,CCCc1nc2c(N)nc3ccccc3c2n1CCCC(C)N(OC)C(=O)NC1CCCC1 (stereo not given)
2,180 to 182,c1ccc(-n2c(C3=NCCN3)cc3ccccc32)cc1
3,103 to 105,CC(C)(C)C(=O)OC(COc1cccc2[nH]ccc12)CN1CCC(COc2ccccc2)CC1 (stereo not given)
4,153 to 154,O=C1N=c2cccc(OCCN3CCC(Cc4ccccc4)CC3)c2=N1
5,201 to 204,CC(C)N(C(C)C)C(C)CN1C(=O)/C(=N/NC(N)=O)c2ccccc21 (stereo not given)
6,59 to 62,CCCNc1nc(=O)n(C2CC(N=[N+]=[N-])C(CO)O2)cc1C (stereo not given)
7,93 to 95,CCCCn1cc(C(=O)OCC)c(NC(=S)Nc2ccccc2)n1
8,170 to 171,CC(C)Oc1cc(/C=C/C(=O)O)n(Cc2ccc(C(F)(F)F)cc2Cl)n1
9,104 to 105,CN(C=O)c1ccc(C2OC(C)(C)N=C2c2ccccc2)cc1 (stereo not given)
10,156 to 158,COc1ccc(OC)c2c1CCC(NC(C)=O)C2 (stereo not given)
11,182 to 184,O=C(NC(Cc1c[nH]c2ccccc12)C(=O)NCc1cc(C(F)(F)F)cc(C(F)(F)F)c1)c1ccccc1 (stereo not given)
12,160 to 161,Clc1cc(CCc2ccccn2)c2oc(-c3cnccn3)nc2c1
13,246 to 250,COc1cccc(Cc2ccc3[nH]c4cnn(C)c4c(=O)c3c2)c1
14,257 to 258,COc1cc2cc(C(=O)N3CC(CCl)c4c3cc([N+](=O)[O-])c3cc(S(=O)(=O)NCCO)ccc43)[nH]c2c(OC)c1OC (stereo not given)
15,98 to 99,COc1cccc(CC(=O)O)c1OCCCc1cc(OC(C)C)nn1Cc1ccc(C(F)(F)F)cc1Cl
16,168 to 170,CCc1cccc(NC(=O)c2cnn(C)c2N)c1
17,264 to 266,COc1ccc(-c2nc(Sc3ccc(C(F)(F)F)cc3[N+](=O)[O-])[nH]c2-c2ccc(OC)cc2)cc1
18,196 to 198,COc1cc2c(Nc3ccc(Sc4nccn4C)c(Cl)c3)c(C#N)cnc2cc1OCCCN1CCC(N2CCCC2)CC1
19,152 to 154,COc1cc(OC)nc(NC(=O)NS(=O)(=O)c2ccccc2C(O)c2cccs2)n1 (stereo not given)
20,142 to 144,NC1CCN(C2c3ccccc3COc3ccc(Br)cc32)CC1 (stereo not given)
21,115 to 117,COc1cc(CCNC(=O)[C@@H](N)C(C)C)ccc1OCC#Cc1ccc(Cl)cc1
